Measurements: patent publication US20120190752A1, “EXO-S-MECAMYLAMINE METHOD, USE, AND COMPOUND FOR TREATMENT” (Targacept Inc., priority 2009, published 2012)

System: subjects with major depressive disorder (MDD) who were inadequate responders to citalopram
Assay: HAMD Anxiety/Somatization Factor, Phase 2b add-on trial
Assay type: in vivo, human
Description: In more detail, a multi-center double-blind, randomized, placebo-controlled, parallel group, flexible dose titration study of TC-5214 as adjunctive therapy in subjects with major depressive disorder (MDD) who were inadequate responders to citalopram was conducted in centers in the US and India. The study consisted of a screening period, baseline/washout period, open-label phase, double-blind phase, and a follow-up visit. Subject participation in the study could continue for up to 16 weeks of treatment. Following a washout period of up to 28 days for other antidepressants, subjects with MDD and a MADRS total score >/=28 and a Clinical Global Impression-Severity (CGI-S) score >/=4 were enrolled on Day 1 into an open-label citalopram-only phase of the study. This phase lasted 8 weeks, with citalopram (CIT) dose increased from a once-daily dose of 20 mg (Day 1 through Week 4) to 40 mg (Week 4 through Week 8). A total of 579 subjects entered the open-label citalopram phase. At Week 8, subjects who tolerated 40 mg CIT, but whose MADRS score was reduced <50% from baseline and no lower than 17, and CGI-S≧4, were considered inadequate responders. These subjects (n=270) were randomized in a double-blind fashion to receive either placebo or TC-5214-23 as add-on therapy to continued CIT. The double-blind phase of the study also lasted 8 weeks (Week 8 to Week 16). Study drug, TC-5214-23 or placebo, was started at 2 mg daily (1 mg twice per day [BID] dosing), added on to continuing CIT (40 mg PO qd). After 2 weeks of treatment, the dose of TC-5214 could be increased to 4 mg (2 mg BID) or continued unchanged, with up-titration based upon good tolerability and inadequate therapeutic response. After a further 2 weeks, the dose of TC-5214 could be increased again to 8 mg (4 mg BID) if judged appropriate by the investigator, based upon good tolerability and inadequate therapeutic response. At any time during the double-blind phase of the study, placebo or TC-5214-23 could be reduced to the previous dose level following the emergence of unacceptable adverse events (AEs). […] At this follow-up, any signs or symptoms of relapse were evaluated. If a subject was prematurely discontinued from the study between Week 8 and Week 16 for any reason, the investigator was to make every effort to perform all evaluations as per protocol, assuming the subject had reached the end of the double-blind add-on treatment phase. These evaluations were to be made as soon as possible and within 2 weeks of discontinuation. […] There was no meaningful difference in results as a function of age, gender, site, or smoking status. With regard to efficacy endpoints, the following tables present efficacy used in the ITT (Intent-to-Treat) and PP (Per Protocol) populations unless otherwise specific. The primary inference was based upon Week 16 visit using the ITT population. Change from baseline was obtained by subtracting the baseline values from the individual on-treatment values. Change from Week 16 was obtained by subtracting the Week 16 values from the individual follow-up visit (Week 18/19) values. If either the baseline or Week 16 or on-treatment or follow-up value was missing, the change from baseline or Week 16 value was also set to missing. To account for missing data, the last observation carry forward (LOCF) method was used for the ITT and PP populations. Thus, the last available on-therapy observation for a subject, including the observation at premature discontinuation, was used to estimate subsequent missing data points. For efficacy, baseline data were collected at Week 8 in the double-blind augmentation phase electronic case report form pages. Analysis for the secondary endpoints were performed on both the ITT and PP populations. The secondary endpoints were as follows in Table 5. [table]

[1] = ITT, Double Blind Week 16 LOCF (change from Week 8)
[2] = ITT, Double Blind Week 18 LOCF (Follow-up), change from Week 16
[3] = PP, Double Blind Week 16 LOCF (change from Week 8)
[4] = PP, Double Blind Week 18 LOCF (Follow-up), change from Week 16

## CNC1(C)C2CCC(C2)C1(C)C (stereo in doubt) [TC-5214, (S)—N,2,3,3-tetramethylnorbornan-2-amine]
ITT and PP populations, result in words
  HAMD anxiety/somatization subscale score change from baseline compared with placebo: statistically significant decreases (improvements)
[1]
  HAMD anxiety/somatization Mean Difference between TC-5214 and Placebo: 1.93
  HAMD anxiety/somatization subscale Adjusted Mean change: −4.58
[2]
  HAMD anxiety/somatization Mean Difference between TC-5214 and Placebo: −0.00
  HAMD anxiety/somatization subscale Adjusted Mean change: −0.14
[3]
  HAMD anxiety/somatization Mean Difference between TC-5214 and Placebo: 1.92
  HAMD anxiety/somatization subscale Adjusted Mean change: −4.93
[4]
  HAMD anxiety/somatization Mean Difference between TC-5214 and Placebo: 0.01
  HAMD anxiety/somatization subscale Adjusted Mean change: −0.16
